Measured values taken from US20010039287A1, “AROMATIC SULFONE HYDROXAMIC ACID METALLOPROTEASE INHIBITOR” (priority 1997, published 2001).
Counter-ions that a name gives are not always drawn. Like-named read-outs stand apart in the source and are kept apart here.

Tests used:
Test in all cases: biochemical
recombinant human MMP-9 = recombinant human MMP-9 (Homo sapiens, UniProt P14780); settings: Inhibition Table A; read-out: MMP-9 IC50
recombinant human MMP-2 = molecular target: T1, recombinant human MMP-2 (Homo sapiens, UniProt P08253); settings: read-out: MMP-2 IC50
T1 sequence (P08253 110-660): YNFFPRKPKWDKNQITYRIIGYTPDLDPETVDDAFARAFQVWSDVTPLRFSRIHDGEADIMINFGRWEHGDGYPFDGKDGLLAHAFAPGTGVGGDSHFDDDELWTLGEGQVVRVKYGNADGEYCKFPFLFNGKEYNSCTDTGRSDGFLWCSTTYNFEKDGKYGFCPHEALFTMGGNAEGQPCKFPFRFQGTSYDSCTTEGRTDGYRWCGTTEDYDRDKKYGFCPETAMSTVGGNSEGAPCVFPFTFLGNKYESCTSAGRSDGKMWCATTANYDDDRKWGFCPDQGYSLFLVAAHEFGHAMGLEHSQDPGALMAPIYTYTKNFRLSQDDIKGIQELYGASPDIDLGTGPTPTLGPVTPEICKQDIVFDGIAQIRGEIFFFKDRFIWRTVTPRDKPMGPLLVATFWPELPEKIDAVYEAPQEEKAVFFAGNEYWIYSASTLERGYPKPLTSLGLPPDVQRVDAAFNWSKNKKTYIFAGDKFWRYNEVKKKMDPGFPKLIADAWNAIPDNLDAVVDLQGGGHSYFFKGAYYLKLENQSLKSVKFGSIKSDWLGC

recombinant human MMP-1 = molecular target: T2, recombinant human MMP-1 (Homo sapiens, UniProt P03956); settings: read-out: MMP-1 IC50
T2 construct: made in house; host or cells: transfected HT-1080 cells (provided by Dr. Harold Welgus, Washington University)
T2 sequence (P03956 100-469): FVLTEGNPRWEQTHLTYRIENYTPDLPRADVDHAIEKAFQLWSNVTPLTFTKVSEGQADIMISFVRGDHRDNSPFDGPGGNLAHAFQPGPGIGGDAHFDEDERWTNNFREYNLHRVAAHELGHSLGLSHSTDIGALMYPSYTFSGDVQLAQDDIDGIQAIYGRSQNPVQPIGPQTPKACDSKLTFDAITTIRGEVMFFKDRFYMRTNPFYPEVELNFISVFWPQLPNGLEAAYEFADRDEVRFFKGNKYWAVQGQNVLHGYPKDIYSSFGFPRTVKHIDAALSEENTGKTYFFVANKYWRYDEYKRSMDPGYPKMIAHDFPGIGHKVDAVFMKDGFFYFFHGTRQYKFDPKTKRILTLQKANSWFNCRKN

recombinant human MMP-13 = recombinant human MMP-13 (Homo sapiens, UniProt P45452); settings: read-out: MMP-13 IC50

recombinant human MMP-9, sequence (P14780 107-707 limits assumed): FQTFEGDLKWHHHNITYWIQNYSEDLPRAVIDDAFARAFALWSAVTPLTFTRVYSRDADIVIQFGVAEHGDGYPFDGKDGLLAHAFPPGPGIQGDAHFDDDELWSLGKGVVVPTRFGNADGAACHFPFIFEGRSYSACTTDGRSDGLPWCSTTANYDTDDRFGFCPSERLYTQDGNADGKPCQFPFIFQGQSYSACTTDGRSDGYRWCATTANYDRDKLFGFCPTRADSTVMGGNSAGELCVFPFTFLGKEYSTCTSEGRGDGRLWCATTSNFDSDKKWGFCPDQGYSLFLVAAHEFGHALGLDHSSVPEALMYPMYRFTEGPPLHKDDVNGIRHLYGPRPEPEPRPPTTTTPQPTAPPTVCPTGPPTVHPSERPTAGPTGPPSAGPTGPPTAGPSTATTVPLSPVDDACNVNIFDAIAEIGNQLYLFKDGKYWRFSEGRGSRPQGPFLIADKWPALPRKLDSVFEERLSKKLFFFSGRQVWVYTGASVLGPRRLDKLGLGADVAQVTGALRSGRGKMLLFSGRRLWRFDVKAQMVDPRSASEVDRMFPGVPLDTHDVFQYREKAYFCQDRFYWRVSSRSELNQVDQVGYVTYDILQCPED

| Compound | IC50 (recombinant human MMP-9) | IC50 (recombinant human MMP-2; Inhibition Table A) | IC50 (recombinant human MMP-1; Inhibition Table A) | IC50 (recombinant human MMP-13; Inhibition Table A) | IC50 (recombinant human MMP-2; Inhibition Table B) | IC50 (recombinant human MMP-1; Inhibition Table B) | IC50 (recombinant human MMP-13; Inhibition Table B) | IC50 (recombinant human MMP-1) |
| --- | --- | --- | --- | --- | --- | --- | --- | --- |
| O=C(CS(=O)(=O)c1ccc(Oc2ccccc2)cc1)NO [Example 1] | 31.6 nM | 2.6 nM | 6600 nM | 5.1 nM | – | – | – | – |
| CC(C)(C(=O)NO)S(=O)(=O)c1ccc(Oc2ccccc2)cc1 [Example 2] | 1.4 nM | 0.1 nM | 220 nM | 0.25 nM | – | – | – | – |
| CCCCOC1CCN(c2ccc(S(=O)(=O)C3(C(=O)NO)CCOCC3)cc2)CC1 [Example 16] | 2500 nM | 100 nM | > 10000 nM | 2.4 nM | – | – | – | – |
| C#CCN1CCC(C(=O)NO)(S(=O)(=O)c2ccc(Sc3ccc(F)cc3)cc2)CC1 [Example 24] | 3.7 nM | 1 nM | > 10000 nM | 0.4 nM | – | – | – | – |
| O=C(NO)C1(S(=O)(=O)c2ccc(Oc3ccc(-n4cncn4)cc3)cc2)CCOCC1 [Example 26] | 7 nM | 0.2 nM | 7700 nM | 0.5 nM | – | – | – | – |
| C#CCN1CCC(Oc2ccc(S(=O)(=O)C3(C(=O)NO)CCOCC3)cc2)CC1 [Example 106, Tetrahydro-N-hydroxy-4-[[4-[[1-(2-propynyl)-4-piperidinyl]-oxy]phenyl]sulfonyl]-2H-pyran-4-carboxamide, Monohydrochloride] | – | – | – | – | 27.1 nM | > 10000 nM | 12.1 nM | – |
| CC(=O)N1CCC(Oc2ccc(S(=O)(=O)C3(C(=O)NO)CCOCC3)cc2)CC1 [Example 107, 4-[[4-[(1-acetyl-4-piperidinyl)oxy]phenyl]-sulfonyl]tetrahydro-N-hydroxy-2H-pyran-4-carboxamide] | – | – | – | – | 12.1 nM | > 10000 nM | 6 nM | – |
| O=C(NO)C1(S(=O)(=O)c2ccc(Oc3ccc(F)c(Cl)c3)cc2)CCOCC1 [Example 108, 4-[[4-(3-chloro-4-fluorophenoxy)phenyl]sulfonyl]-tetrahydro-N-hydroxy-2H-pyran-4-carboxamide] | – | – | – | – | 0.4 nM | 2000 nM | 0.4 nM | – |
| CC(=O)N1CCN(c2ccc(Oc3ccc(S(=O)(=O)C4(C(=O)NO)CCSCC4)cc3)cc2)CC1 [Example 112] | – | – | – | – | 7 nM | 1000 nM | 3.2 nM | – |
| O=C(NO)C1(S(=O)(=O)c2ccc(Sc3ccccc3)cc2)CC[S+]([O-])CC1 (centres unmarked) [Example 113] | – | – | – | – | 0.9 nM | > 10000 nM | 4 nM | – |
| Nc1ccc(Sc2ccc(S(=O)(=O)C3(C(=O)NO)CCOCC3)cc2)cc1 [Example 120, 4-[[4-[(4-aminophenyl)thio]phenyl]-sulfonyl]tetrahydro-N-hydroxy-2H-pyran-4-carboxamide] | – | – | – | – | 0.4 nM | 4000 nM | 0.4 nM | – |
| Cc1nc2cc(Oc3ccc(S(=O)(=O)C4(C(=O)NO)CCOCC4)cc3)ccc2s1 [Example 121, tetrahydro-N-hydroxy-4-[[4-[(2-methyl-5-benzothiazolyl)-oxy]phenyl]sulfonyl]-2H-pyran-4-carboxamide] | – | – | – | – | < 0.1 nM | 1200 nM | 0.2 nM | – |
| O=C(NO)C1(S(=O)(=O)c2ccc(Oc3ccc(Cl)c(F)c3)cc2)CCOCC1 [Example 122, 4-[[4-(4-chloro-3-fluorophenoxy)phenyl]sulfonyl]-tetrahydro-N-hydroxy-2H-pyran-4-carboxamide] | – | – | – | – | 0.1 nM | 600 nM | 0.15 nM | – |
| CCOC(=O)N1CCN(c2ccc(S(=O)(=O)C3(C(=O)NO)CCOCC3)cc2)CC1 [Example 126] | – | – | – | – | 11.3 nM | 8000 nM | 10 nM | – |
| O=C(NO)C1(S(=O)(=O)c2ccc(N3CCN(CCO)CC3)cc2)CCOCC1 [Example 127] | – | – | – | – | 37 nM | – | 40 nM | > 10000 nM |
| COc1ccccc1N1CCN(c2ccc(S(=O)(=O)C3(C(=O)NO)CCOCC3)cc2)CC1 [Example 128] | – | – | – | – | 23.8 nM | > 10000 nM | 20 nM | – |
| O=C(NCC(F)(F)F)C1CCN(c2ccc(S(=O)(=O)C3(C(=O)NO)CCOCC3)cc2)CC1 [Example 180] | – | – | – | – | 128 nM | 5000 nM | 4 nM | – |

| Compound | IC50 (recombinant human MMP-9) | IC50 (recombinant human MMP-2; Inhibition Table A) | IC50 (recombinant human MMP-1; Inhibition Table A) | IC50 (recombinant human MMP-13; Inhibition Table A) | IC50 (recombinant human MMP-2; Inhibition Table B) | IC50 (recombinant human MMP-1; Inhibition Table B) | IC50 (recombinant human MMP-13; Inhibition Table B) | IC50 (recombinant human MMP-1) |
| --- | --- | --- | --- | --- | --- | --- | --- | --- |
| O=C(NCc1ccc(F)cc1)C1CCN(c2ccc(S(=O)(=O)C3(C(=O)NO)CCOCC3)cc2)CC1 [Example 197] | – | – | – | – | 145 nM | 7000 nM | 8 nM | – |
| O=C(C1CCCCC1)N1CCN(c2ccc(S(=O)(=O)C3(C(=O)NO)CCOCC3)cc2)CC1 [Example 200] | – | – | – | – | 24 nM | > 10000 nM | 17.5 nM | – |
| O=C(C1CCc2ccccc2C1)N1CCN(c2ccc(S(=O)(=O)C3(C(=O)NO)CCOCC3)cc2)CC1 (centres unmarked) [Example 201] | – | – | – | – | 22.4 nM | > 10000 nM | 13.6 nM | – |
| O=C(N1CCCCC1)N1CCN(c2ccc(S(=O)(=O)C3(C(=O)NO)CCOCC3)cc2)CC1 [Example 206] | – | – | – | – | > 10 nM | > 10000 nM | 20 nM | – |
| O=C(NO)C1(S(=O)(=O)c2ccc(-c3ccccc3)cc2)CCOCC1 [Example 213] | – | – | – | – | < 1 nM | 310 nM | < 1 nM | – |
| O=C(NO)C1(S(=O)(=O)c2ccc(-c3ccsc3)cc2)CCOCC1 [Example 215] | – | – | – | – | < 1 nM | 250 nM | < 1 nM | – |
| O=C(NO)C1(S(=O)(=O)c2ccc(-c3cccc(C(F)(F)F)c3)cc2)CCOCC1 [Example 219] | – | – | – | – | < 1 nM | > 10000 nM | < 1 nM | – |
| O=C(NO)C1(S(=O)(=O)c2ccc(-c3cccc4ccccc34)cc2)CCOCC1 [Example 224] | – | – | – | – | 18.1 nM | > 10000 nM | 16.7 nM | – |
| Cc1ccccc1-c1ccc(S(=O)(=O)C2(C(=O)NO)CCOCC2)cc1 [Example 225] | – | – | – | – | 54 nM | > 10000 nM | 70 nM | – |
| CC(C)(C)c1ccc(-c2ccc(S(=O)(=O)C3(C(=O)NO)CCOCC3)cc2)cc1 [Example 226] | – | – | – | – | 18.6 nM | > 10000 nM | 6 nM | – |
| O=C(NO)C1(S(=O)(=O)c2ccc(-c3ccc4ccccc4c3)cc2)CCOCC1 [Example 227] | – | – | – | – | < 1 nM | > 10000 nM | < 1 nM | – |
| O=Cc1cccc(-c2ccc(S(=O)(=O)C3(C(=O)NO)CCOCC3)cc2)c1 [Example 228] | – | – | – | – | < 1 nM | 600 nM | < 1 nM | – |
| O=Cc1ccccc1-c1ccc(S(=O)(=O)C2(C(=O)NO)CCOCC2)cc1 [Example 230] | – | – | – | – | > 100 nM | > 10000 nM | > 100 nM | – |
| O=Cc1ccc(-c2ccc(S(=O)(=O)C3(C(=O)NO)CCOCC3)cc2)cc1 [Example 231] | – | – | – | – | < 1 nM | 650 nM | < 1 nM | – |
| Nc1cccc(-c2ccc(S(=O)(=O)C3(C(=O)NO)CCOCC3)cc2)c1 [Example 232] | – | – | – | – | < 1 nM | < 100 nM | < 1 nM | – |
| N,N-dimethyl-5-[4-[[tetrahydro-4-1[(hydroxyamino)-carbonyl]-2H-pyran-4-yl]sulfonyl]-phenoxy]-1H-indole-2-carboxamide, Trifluoroacetic Acid Salt [Example 124] | – | – | – | – | 0.5 nM | 1000 nM | 1.1 nM | – |
